ChEMBL document CHEMBL1914375, “New PDE4 inhibitors based on pharmacophoric similarity between papaverine and tofisopam” (Bioorg Med Chem Lett, 2011)

Experiments:
[1] = Inhibition of bovine aortic PDE4 using cAMP as substrate in presence of cGMP; design: species or system Bos taurus
[2] = biological target: cGMP-specific 3',5'-cyclic phosphodiesterase (Bos taurus, UniProt Q28156); experiment: Inhibition of bovine aortic PDE5 using cGMP as substrate in presence of EGTA
[3] = Inhibition of bovine aortic endothelial cells PDE2 using cAMP as substrate in presence of cGMP; format: cell-based, Bos taurus; conditions: endothelial cell
[4] = species on record: Bos taurus; experiment: Inhibition of bovine aortic PDE3 using cAMP as substrate at 10 uM in presence of rolipram
[5] = test system: Endothelial cell; experiment: Inhibition of bovine aortic endothelial cells PDE2 using cAMP as substrate at 10 uM in presence of cGMP; format: cell-based; conditions: Bos taurus
[6] = species on record: Bos taurus; experiment: Inhibition of bovine aortic PDE1 using calmodulin activated cGMP as substrate at 10 uM
[7] = biological target: cGMP-specific 3',5'-cyclic phosphodiesterase (Bos taurus) (UniProt Q28156); experiment: Inhibition of bovine aortic PDE5 using cGMP as substrate at 10 uM in presence of EGTA
[8] = Inhibition of bovine aortic PDE3 using cAMP as substrate in presence of rolipram; design: species or system Bos taurus
[9] = species on record: Bos taurus; experiment: Ratio of tofisopam IC50 to compound IC50 for bovine aortic PDE4 using cAMP as substrate in presence of cGMP
[10] = species on record: Bos taurus
Description: Activity of bovine aortic PDE4

[11] = Competitive inhibition of bovine aortic PDE4 using cAMP as substrate by Lineweaver-Burk plot analysis; design: species or system Bos taurus

| Compound | IC50 [1] [nM] | other results |
| --- | --- | --- |
| COc1cc2c(cc1OC)C(c1cccc(Cl)c1)=NNC(=O)C2 | 7700 | – |
| COc1cc2c(cc1OC)C(c1cccc(Cl)c1)=NN=C(C)C2 [GIRISOPAM] | 3200 | IC50 [2]: 12500 nM; IC50 [3]: 4000 nM; inhibition [4]: 22% |
| CCOc1ccc(C2=NNC(=O)Cc3ccccc32)cc1OCC | 190 | inhibition [5]: 27%; inhibition [6]: 3%; inhibition [4]: 12%; inhibition [7]: 17% |
| COc1cc2c(cc1OC)N(C)C(=O)CN=C2c1cc2ccccc2s1 | 2300 | – |
| CCOc1ccc(C(=O)c2ccc(Cl)c(Cl)c2)cc1OCC | 7900 | – |
| COc1cc2c(cc1OC)N(C)C(=O)CN=C2CCc1ccccc1 | > 20000 | – |
| CCOc1cc2c(cc1OCC)C(c1ccccc1)=NNC(=O)C2 | 800 | inhibition [5]: 5%; inhibition [6]: 37%; inhibition [4]: 30%; inhibition [7]: 30% |
| COc1ccc(Cc2nccc3cc(OC)c(OC)cc23)cc1OC [PAPAVERINE] | 1100 | – |
| COc1cc2c(cc1OC)C(c1ccc(Cl)cc1)=NNC(=O)C2 | 1500 | – |
| COc1cc2c(cc1OC)N(C)C(=O)CN=C2N1CCCCC1 | > 20000 | – |
| CCOc1cc2c(cc1OCC)C(CC)C(C)=NN=C2c1ccc(Cl)cc1 (stereo not drawn) | 200 | inhibition [5]: 38%; inhibition [4]: 4%; inhibition [7]: 39% |
| CCOc1cc2c(cc1OCC)C(c1cccc(Cl)c1)=NNC(=O)C2 | 1400 | – |
| COc1cc2c(cc1OC)N(C)C(=O)CN=C2C#Cc1ccccc1 | 1600 | – |
| COc1cc2c(cc1OC)N(C)C(=O)CN=C2c1cccc(Cl)c1 | > 20000 | – |
| COc1cc2c(cc1OC)C(c1ccccc1)=NCC(=O)N2 | > 20000 | – |
| COc1ccc(C(=O)N2CCCCC2)cc1OC | 9600 | – |
| CCC1C(C)=NN=C(c2ccc(OC)c(OC)c2)c2cc(OC)c(OC)cc21 (stereo not drawn) [TOFISOPAM] | 680 | IC50 [3]: 900 nM; IC50 [8]: 5900 nM |
| CCOc1ccc(C(=O)c2ccccc2)cc1OCC | 2900 | – |
| COc1cc2c(cc1OC)C(c1ccc(Cl)c(Cl)c1)=NNC(=O)C2 | 300 | – |
| CCOc1cc2c(cc1OCC)C(c1cc3ccccc3s1)=NNC(=O)C2 | 260 | – |
| CCOc1cc2c(cc1OCC)C(c1ccccc1)=NCC(=O)N2 | 950 | – |
| COc1cc2c(cc1OC)N(C)C(=O)CN=C2c1ccccc1 | 18000 | – |

| Compound | IC50 [1] [nM] | other results |
| --- | --- | --- |
| CCOc1cc2c(cc1OCC)C(c1ccc(Cl)cc1)=NNC(=O)C2 | 800 | – |
| CCOc1cc2c(cc1OCC)C(c1cc3ccccc3s1)=NN(C)C(=O)C2 | 87 | Ratio IC50 [9]: 7 |
| CCOc1ccc(C(=O)N2CCN(c3ccccc3)CC2)cc1OCC | 17000 | – |
| Nc1ncnc2c1ncn2[C@@H]1O[C@@H]2COP(=O)(O)O[C@H]2[C@H]1O | – | Km [10]: 0.71 µM |
| CCOc1ccc(C(=O)c2ccc3ccccc3c2)cc1OCC | 5000 | – |
| COc1cc2c(cc1OC)C(c1cc3ccccc3s1)=NNC(=O)C2 | 1200 | – |
| CCOc1ccc(C2=NN(C)C(=O)Cc3ccccc32)cc1OCC | 140 | Ki [11]: 66 nM |
| CCOc1ccc(C(=O)c2ccccc2Cl)cc1OCC | 1400 | inhibition [5]: 46%; inhibition [6]: 21%; Ki [11]: 420 nM; inhibition [4]: 24%; inhibition [7]: 4% |
| CCOc1ccc(C(=O)N2CCCCC2)cc1OCC | 3600 | – |
| COc1cc2c(cc1OC)C(c1ccccc1)=NNC(=O)C2 | 7700 | – |
| CCOc1ccc(C(=O)c2ccc(N(C)Cc3ccccc3)cc2)cc1OCC | 2200 | – |
| COc1cc2c(cc1OC)C(c1ccccc1)=NN(C)C(=O)C2 | 5100 | – |
| CCOc1ccc(C(=O)c2ccc(Cl)cc2)cc1OCC | > 20000 | – |
| CCOc1cc2c(cc1OCC)N(C)C(=O)CN=C2c1ccccc1 | 860 | – |
| CCOc1cc2c(cc1OCC)C(CC)C(C)=NN=C2c1cccc(Cl)c1 (stereo not drawn) | 390 | inhibition [5]: 44% |
| CCOc1ccc(C(=O)c2cccc3ccccc23)cc1OCC | 4300 | – |
| CCOc1ccc(Cc2nccc3cc(OCC)c(OCC)cc23)cc1OCC [ETHAVERINE] | 400 | – |
| COc1cc2c(cc1OC)C(c1ccc3ccccc3c1)=NNC(=O)C2 | 1500 | – |
| COc1cc2c(cc1OC)N(C)C(=O)CN=C2c1ccc(Cl)cc1 | > 20000 | – |
| COc1cc2c(cc1OC)N(C)C(=O)CN=C2/C=C/c1ccccc1 | 8400 | – |
| COc1cc2c(cc1OC)C(c1cc3ccccc3s1)=NN(C)C(=O)C2 | 300 | – |
| CCOc1ccc(C(=O)N2CCN(Cc3ccccc3)CC2)cc1OCC | 2300 | – |
